In patent publication US20170355705A1 (GlaxoSmithKline Intellectual Property (No.2) Limited, priority 2014, published 2017):

Molecular target: T1, SIRT1 (Homo sapiens, UniProt Q96EB6)
T1 sequence (Q96EB6 1-747): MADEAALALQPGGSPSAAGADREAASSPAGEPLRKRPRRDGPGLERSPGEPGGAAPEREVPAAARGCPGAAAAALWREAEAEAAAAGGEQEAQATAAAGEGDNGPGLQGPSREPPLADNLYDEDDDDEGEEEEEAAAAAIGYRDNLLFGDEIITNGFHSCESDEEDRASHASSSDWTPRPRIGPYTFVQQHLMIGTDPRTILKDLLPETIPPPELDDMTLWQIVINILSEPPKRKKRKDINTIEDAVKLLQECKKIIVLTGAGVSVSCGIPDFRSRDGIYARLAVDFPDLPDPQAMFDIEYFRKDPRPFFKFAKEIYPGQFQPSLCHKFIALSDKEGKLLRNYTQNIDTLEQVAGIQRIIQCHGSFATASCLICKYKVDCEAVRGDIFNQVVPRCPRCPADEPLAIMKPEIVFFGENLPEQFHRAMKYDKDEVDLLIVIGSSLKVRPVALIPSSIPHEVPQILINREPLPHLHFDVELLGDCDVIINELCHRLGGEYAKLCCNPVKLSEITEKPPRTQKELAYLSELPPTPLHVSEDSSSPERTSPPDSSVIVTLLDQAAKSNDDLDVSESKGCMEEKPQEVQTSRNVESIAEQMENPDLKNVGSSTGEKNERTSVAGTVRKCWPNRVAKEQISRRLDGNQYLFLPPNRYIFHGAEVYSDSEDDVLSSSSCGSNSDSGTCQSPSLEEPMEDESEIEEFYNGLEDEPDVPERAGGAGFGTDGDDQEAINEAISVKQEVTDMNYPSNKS
Assay: Trp mass spectrometry assay of SIRT1 activity (EC1.5, percent maximum activation)
Assay type: biochemical
Conditions: Trp mass spectrometry assay; for TRP Activity (EC1.5): EC1.5 = concentration giving 150% activation of SIRT1
Procedure, shortened: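 Activation values derive from mass-spectrometric measurement of NAD-dependent deacetylation product after a 25 min reaction of bacterially expressed His-tagged SIRT1 with a fluorophore-labelled Trp peptide.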

[1] = percent maximum activation of SIRT1
[2] = 0.5 μM peptide substrate, 120 μM βNAD+, 10 nM SIRT1, 25 minutes at 25° C.

| Structure (SMILES) | TRP Activity (EC1.5) | TRP MAX RESP (percent maximum fold activation) [1] | TRP Activity (EC1.5, concentration of test compound that results in 150% activation of SIRT1) [2] | TRP MAX RESP (percent maximum fold activation) [2] |
| --- | --- | --- | --- | --- |
| O=C(Nc1cnc(OC[C@H](O)CO)cn1)N1c2nc(-c3cccc(C(F)(F)F)c3)c(Cl)cc2N2CC[C@H]1C2 [Example 34, (4S)-8-chloro-N-(5-((R)-2,3-dihydroxypropoxy)pyrazin-2-yl)-7-(3-(trifluoromethyl)phenyl)-3,4-dihydro-1,4-methanopyrido[2,3-b][1,4]diazepine-5(2H)-carboxamide] | B (EC1.5 1-25 μM) | A (Fold activation ≧150%) |  |  |
| Cc1cc2c(nc1-c1cccc(C(F)F)c1)N(C(=O)Nc1ccnc(OC[C@@H](O)CO)c1)[C@H]1CCN2C1 [Example 89, (4S)-7-(3-(difluoromethyl)phenyl)-N-(2-((S)-2,3-dihydroxypropoxy)pyridin-4-yl)-8-methyl-3,4-dihydro-1,4-methanopyrido[2,3-b][1,4]diazepine-5(2H)-carboxamide] | A (EC1.5<1 μM) | A (Fold activation ≧150%) |  |  |
| O=C(NCCO)N1c2nc(-c3cccc(C(F)(F)F)c3)ccc2N2CC[C@H]1C2 [Example 378, (4S)-N-(2-hydroxyethyl)-7-(3-(trifluoromethyl)phenyl)-3,4-dihydro-1,4-methanopyrido[2,3-b][1,4]diazepine-5(2H)-carboxamide] |  |  | B (EC1.5 1-25 μM) | A (Fold activation ≧150%) |
| O=C(Nc1ccnc(O[C@H]2CCOC2)n1)N1c2nc(-c3cccc(C(F)(F)F)c3)c(Cl)cc2N2CC[C@H]1C2 [Example 19, (4S)-8-chloro-N-(2-(((S)-tetrahydrofuran-3-yl)oxy)pyrimidin-4-yl)-7-(3-(trifluoromethyl)phenyl)-3,4-dihydro-1,4-methanopyrido[2,3-b][1,4]diazepine-5(2H)-carboxamide] | A (EC1.5<1 μM) | A (Fold activation ≧150%) |  |  |
| Cc1cc(-c2nc3c(cc2Cl)N2CC[C@@H](C2)N3C(=O)Nc2ccnc(OC[C@H](O)CO)c2)ccn1 [Example 39, (4S)-8-chloro-N-(2-((R)-2,3-dihydroxypropoxy)pyridin-4-yl)-7-(2-methylpyridin-4-yl)-3,4-dihydro-1,4-methanopyrido[2,3-b][1,4]diazepine-5(2H)-carboxamide] | B (EC1.5 1-25 μM) | A (Fold activation ≧150%) |  |  |
| Cc1cc(-c2cc(C)c3c(n2)N(C(=O)Nc2cccnc2)[C@H]2CCN3C2)ccn1 [Example 84, (4S)-9-methyl-7-(2-methylpyridin-4-yl)-N-(pyridin-3-yl)-3,4-dihydro-1,4-methanopyrido[2,3-b][1,4]diazepine-5(2H)-carboxamide] | A (EC1.5<1 μM) | A (Fold activation ≧150%) |  |  |
| Cc1ccc2c(NC(=O)N3c4nc(-c5cccc(C(F)(F)F)c5)c(Cl)cc4N4CC[C@H]3C4)n[nH]c2n1 [Example 88, (4S)-8-chloro-N-(6-methyl-1H-pyrazolo[3,4-b]pyridin-3-yl)-7-(3-(trifluoromethyl)phenyl)-3,4-dihydro-1,4-methanopyrido[2,3-b][1,4]diazepine-5(2H)-carboxamide] | A (EC1.5<1 μM) | A (Fold activation ≧150%) |  |  |
| CC(C)(CO)COc1cccc(NC(=O)N2c3nc(-c4cccc(C(F)(F)F)c4)c(Cl)cc3N3CC[C@H]2C3)n1 [Example 49, (4S)-8-chloro-N-(6-(3-hydroxy-2,2-dimethylpropoxy)pyridin-2-yl)-7-(3-(trifluoromethyl)phenyl)-3,4-dihydro-1,4-methanopyrido[2,3-b][1,4]diazepine-5(2H)-carboxamide] | B (EC1.5 1-25 μM) | A (Fold activation ≧150%) |  |  |
| Cc1cc(-c2nc3c(cc2C#N)N2CC[C@@H](C2)N3C(=O)Nc2ccccn2)ccn1 [Example 92, (4S)-8-cyano-7-(2-methylpyridin-4-yl)-N-(pyridin-2-yl)-3,4-dihydro-1,4-methanopyrido[2,3-b][1,4]diazepine-5(2H)-carboxamide] | B (EC1.5 1-25 μM) | A (Fold activation ≧150%) |  |  |
| O=C(Nc1ccc(OC[C@H](O)CO)cn1)N1c2nc(-c3cccc(C(F)(F)F)c3)c(Cl)cc2N2CC[C@H]1C2 [Example 76, (4S)-8-chloro-N-(5-((R)-2,3-dihydroxypropoxy)pyridin-2-yl)-7-(3-(trifluoromethyl)phenyl)-3,4-dihydro-1,4-methanopyrido[2,3-b][1,4]diazepine-5(2H)-carboxamide] | A (EC1.5<1 μM) | A (Fold activation ≧150%) |  |  |
| O=C(Nc1ccnc(OCCCO)n1)N1c2nc(-c3cccc(C(F)(F)F)c3)c(Cl)cc2N2CC[C@H]1C2 [Example 42, (4S)-8-chloro-N-(2-(3-hydroxypropoxy)pyrimidin-4-yl)-7-(3-(trifluoromethyl)phenyl)-3,4-dihydro-1,4-methanopyrido[2,3-b][1,4]diazepine-5(2H)-carboxamide] | A (EC1.5<1 μM) | A (Fold activation ≧150%) |  |  |
| Cc1cc(-c2nc3c(cc2Cl)N2CC[C@@H](C2)N3C(=O)Nc2cccc(OC[C@H](O)CO)n2)ccn1 [Example 41, (4S)-8-chloro-N-(6-((R)-2,3-dihydroxypropoxy)pyridin-2-yl)-7-(2-methylpyridin-4-yl)-3,4-dihydro-1,4-methanopyrido[2,3-b][1,4]diazepine-5(2H)-carboxamide] | B (EC1.5 1-25 μM) | A (Fold activation ≧150%) |  |  |

The next lines start with the values.

| TRP Activity (EC1.5) | TRP MAX RESP (percent maximum fold activation) [1] | TRP Activity (EC1.5, concentration of test compound that results in 150% activation of SIRT1) [2] | TRP MAX RESP (percent maximum fold activation) [2] | Structure (SMILES) |
| --- | --- | --- | --- | --- |
|  |  |  | A (Fold activation ≧150%) | N#Cc1ccc(-c2ccc3c(n2)N(C(=O)Nc2cccnc2)[C@H]2CCN3C2)cn1 [Example 245] |
|  |  | C (EC1.5>25 μM) | B (Fold Activation <150%) | NC(=O)N1c2nc(-c3cccc(C(F)(F)F)c3)ccc2N2CC[C@H]1C2 [Example 379, (4S)-7-(3-(trifluoromethyl)phenyl)-3,4-dihydro-1,4-methanopyrido[2,3-b][1,4]diazepine-5(2H)-carboxamide] |
| C (EC1.5>25 μM) | B (Fold Activation <150%) |  |  | Cc1cc(-c2nc3c(cc2Cl)N2CC[C@@H](C2)N3C(=O)Nc2ccnc(OC[C@@H](O)CO)n2)ccn1 [Example 94, (4S)-8-chloro-N-(2-((S)-2,3-dihydroxypropoxy)pyrimidin-4-yl)-7-(2-methylpyridin-4-yl)-3,4-dihydro-1,4-methanopyrido[2,3-b][1,4]diazepine-5(2H)-carboxamide] |
| A (EC1.5<1 μM) | A (Fold activation ≧150%) |  |  | CC(C)c1cc(-c2ccc3c(n2)N(C(=O)Nc2cnccn2)[C@H]2CCN3C2)ccn1 [Example 137, (4S)-7-(2-isopropylpyridin-4-yl)-N-(pyrazin-2-yl)-3,4-dihydro-1,4-methanopyrido[2,3-b][1,4]diazepine-5(2H)-carboxamide] |
| A (EC1.5<1 μM) | A (Fold activation ≧150%) |  |  | Cc1cc(-c2ccc3c(n2)N(C(=O)Nc2cncc(C4CC4)n2)[C@H]2CCN3C2)ccn1 [Example 166, (4S)-N-(6-cyclopropylpyrazin-2-yl)-7-(2-methylpyridin-4-yl)-3,4-dihydro-1,4-methanopyrido[2,3-b][1,4]diazepine-5(2H)-carboxamide] |
| B (EC1.5 1-25 μM) | A (Fold activation ≧150%) |  |  | Cc1cc(-c2ccc3c(n2)N(C(=O)Nc2cnc(C4CC4)cn2)[C@H]2CCN3C2)ccn1 [Example 164, (4S)-N-(5-cyclopropylpyrazin-2-yl)-7-(2-methylpyridin-4-yl)-3,4-dihydro-1,4-methanopyrido[2,3-b][1,4]diazepine-5(2H)-carboxamide] |
|  |  | A (EC1.5<1 μM) | A (Fold activation ≧150%) | Cc1cc(-c2ccc3c(n2)N(C(=O)Nc2cncc(OC(C)C)n2)[C@H]2CCN3C2)ccn1 [Example 221, (4S)-N-(6-isopropoxypyrazin-2-yl)-7-(2-methylpyridin-4-yl)-3,4-dihydro-1,4-methanopyrido[2,3-b][1,4]diazepine-5(2H)-carboxamide] |
|  |  |  | A (Fold activation ≧150%) | CC(C)n1cc(-c2ccc3c(n2)N(C(=O)Nc2cnccn2)[C@H]2CCN3C2)cn1 [Example 252] |
